Calls of active or inactive are those of the source. The calls are words filed in the database; no cut-off is given here.
Key:
[1] = molecular target: T1, Aryl hydrocarbon receptor (Mus musculus, UniProt P30561); test: Activation of AhR transcription in C57BL/6 mouse naive T cells assessed as increase in CYP1A1 mRNA expression at 1 to 3 uM measured after 72 hrs by qRT-PCR analysis; format: cell-based; details: t cell, dose 1-3 µM
T1 sequence (P30561 whole entry): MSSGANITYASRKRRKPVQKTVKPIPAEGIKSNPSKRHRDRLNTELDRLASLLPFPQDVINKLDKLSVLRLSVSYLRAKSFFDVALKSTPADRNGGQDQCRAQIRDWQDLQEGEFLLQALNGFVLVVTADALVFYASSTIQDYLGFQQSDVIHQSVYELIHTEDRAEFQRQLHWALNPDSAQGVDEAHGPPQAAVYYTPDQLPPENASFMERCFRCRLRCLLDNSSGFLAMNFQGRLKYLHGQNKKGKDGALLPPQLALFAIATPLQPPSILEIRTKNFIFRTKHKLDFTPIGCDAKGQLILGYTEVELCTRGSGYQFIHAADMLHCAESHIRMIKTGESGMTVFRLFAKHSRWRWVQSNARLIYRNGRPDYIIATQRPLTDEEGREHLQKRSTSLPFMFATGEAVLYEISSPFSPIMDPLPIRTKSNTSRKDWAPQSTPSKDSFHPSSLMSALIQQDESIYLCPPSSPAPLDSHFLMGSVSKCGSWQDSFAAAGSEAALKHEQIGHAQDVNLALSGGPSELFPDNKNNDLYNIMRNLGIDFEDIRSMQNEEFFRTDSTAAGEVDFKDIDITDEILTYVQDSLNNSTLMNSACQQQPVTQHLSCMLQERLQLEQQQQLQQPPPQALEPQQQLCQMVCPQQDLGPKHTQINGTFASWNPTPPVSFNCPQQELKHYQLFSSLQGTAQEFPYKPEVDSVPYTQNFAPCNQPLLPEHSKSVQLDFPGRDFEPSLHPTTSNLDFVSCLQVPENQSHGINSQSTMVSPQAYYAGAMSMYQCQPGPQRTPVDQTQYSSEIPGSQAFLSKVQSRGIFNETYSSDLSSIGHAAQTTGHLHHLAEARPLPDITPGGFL

[2] = Oral bioavailability in Sprague-Dawley rat at 30 mg/kg measured upto 1440 min by LC-MS/MS analysis; format: ADME, organism-based; details: in vivo
Mus musculus [3] = test: In vivo activation of AhR in C57BL/6 mouse assessed as increase in CYP1A1 mRNA expression at 10 to 20 mg/kg, po administered once a day for 10 days by qRT-PCR analysis; format: functional, organism-based; details: dose 10-20 mg/kg, time 10.0 day
[4] = Tmax in Sprague-Dawley rat at 30 mg/kg, po measured upto 1440 min by LC-MS/MS analysis; format: ADME, organism-based; details: in vivo
[5] = Unbound drug concentration in rat plasma at 10.67 ug/ml of total concentration measured after 12 hrs by ultrafiltration based HPLC analysis; format: ADME, cell-free; details: dose 10.67 µg/ml
[6] = Induction of cell differentiation in C57BL/6 mouse naive regulatory T cells assessed as increase in cell frequency at 10 uM incubated for 72 hrs by flow cytometric analysis (reference value: 24.9%); format: functional
[7] = Unbound drug concentration in rat plasma at 20.13 ug/ml of total concentration measured after 12 hrs by ultrafiltration based HPLC analysis; format: ADME, cell-free; details: dose 20.13 µg/ml
[8] = Unbound drug concentration in rat plasma at 37.38 ug/ml of total concentration measured after 12 hrs by ultrafiltration based HPLC analysis; format: ADME, cell-free; details: dose 37.38 µg/ml
[9] = Cmax in Sprague-Dawley rat at 30 mg/kg, po measured at 120 min by LC-MS/MS analysis; format: ADME, organism-based; parameters: dose 30 mg/kg, time 120 min, route po; details: in vivo
[10] = MRT in Sprague-Dawley rat at 3 mg/kg, iv measured upto 1440 min by LC-MS/MS analysis; format: ADME, organism-based; details: in vivo
EL4 = test: Cytotoxicity against mouse EL4 cells assessed as inhibition of cell proliferation incubated for 72 hrs by MTT assay; format: functional, cell-based; details: EL4, 72 h
Mus musculus [11] = test: Anti-colitis activity in DSS-induced ulcerative colitis C57BL/6 mouse model assessed as CD4+CD25+Foxp3+ Treg cell percentage in spleen at 10 mg/kg, po administered once a day for 10 days by flow cytometric analysis (reference value: 3.3%); format: functional; details: time 10 day
[12] = molecular target: T1, Aryl hydrocarbon receptor; test: Activation of AhR transcription in C57BL/6 mouse naive T cells assessed as increase in CYP1A1 mRNA expression by measuring fold change at 10 uM measured after 72 hrs by qRT-PCR analysis relative to control; format: cell-based; details: T-cell, read-out: FC
[13] = Protein binding in rat plasma at 10.67 ug/ml of total concentration measured after 12 hrs by ultrafiltration based HPLC analysis; format: ADME, cell-free; details: at 10.67 µg/mL, read-out: PPB (converted)
Regulatory T cell [14] = test: Induction of cell differentiation in C57BL/6 mouse naive regulatory T cells at 10 uM incubated for 72 hrs by flow cytometric analysis; format: functional, cell-based
[15] = AUC(0 to infinity) in Sprague-Dawley rat at 3 mg/kg, iv measured upto 1440 min by LC-MS/MS analysis; format: ADME, organism-based; parameters: dose 3 mg/kg, time < 1440 min, route iv; details: in vivo
Mus musculus [16] = test: Anti-colitis activity in DSS-induced ulcerative colitis C57BL/6 mouse model assessed as CD4+CD25+Foxp3+ Treg cell percentage in spleen at 20 mg/kg, po administered once a day for 10 days by flow cytometric analysis (reference value: 3.3%); format: functional; details: time 10 day
Mus musculus [17] = test: Anti-colitis activity in DSS-induced ulcerative colitis C57BL/6 mouse model assessed as increase in CD4+CD25+Foxp3+ Treg cell ratio in mesenteric lymph nodes at 20 mg/kg, po administered once a day for 10 days by flow cytometric analysis (reference value: 4.5 %); format: functional; details: time 10 day
Regulatory T cell [18] = test: Induction of cell differentiation in C57BL/6 mouse naive regulatory T cells assessed as increase in IL-10 mRNA level at 3 uM incubated for 72 hrs by qRT-PCR analysis; format: functional, cell-based
[19] = molecular target: T1, Aryl hydrocarbon receptor; test: Activation of AhR transcription in C57BL/6 mouse naive T cells assessed as increase in CYP1A1 mRNA expression at 10 uM measured after 72 hrs by qRT-PCR analysis relative to control; format: cell-based; details: t cell
[20] = Apparent oral clearance in Sprague-Dawley rat at 3 mg/kg, iv measured upto 1440 min by LC-MS/MS analysis; format: ADME, organism-based; details: in vivo, 24 h
Regulatory T cell [21] = test: Induction of cell differentiation in C57BL/6 mouse naive regulatory T cells assessed as increase in […] mRNA level at 3 uM incubated for 72 hrs by qRT-PCR analysis; format: functional, cell-based
[22] = AUC(0 to infinity) in Sprague-Dawley rat at 30 mg/kg, po measured upto 1440 min by LC-MS/MS analysis; format: ADME, organism-based; parameters: time < 1440 min, dose 30 mg/kg, route po; details: in vivo
[23] = Induction of cell differentiation in C57BL/6 mouse naive regulatory T cells assessed as increase in cell frequency at 30 uM incubated for 72 hrs by flow cytometric analysis (reference value: 24.9%); format: functional
[24] = Cmax in Sprague-Dawley rat at 3 mg/kg, iv measured at 120 min by LC-MS/MS analysis; format: ADME, organism-based; parameters: time 120 min, dose 3 mg/kg, route iv; details: in vivo
Mus musculus [25] = test: Anti-colitis activity in DSS-induced ulcerative colitis C57BL/6 mouse model assessed as increase in CD4+CD25+Foxp3+ Treg cell ratio in mesenteric lymph nodes at 10 mg/kg, po administered once a day for 10 days by flow cytometric analysis (reference value: 4.5 %); format: functional; details: time 10 day
[26] = Apparent oral clearance in Sprague-Dawley rat at 30 mg/kg measured upto 1440 min by LC-MS/MS analysis; format: ADME, organism-based; details: in vivo, 24 h
[27] = Half-life in Sprague-Dawley rat at 30 mg/kg, po measured upto 1440 min by LC-MS/MS analysis; format: ADME, organism-based; details: in vivo
[28] = MRT in Sprague-Dawley rat at 30 mg/kg, po measured upto 1440 min by LC-MS/MS analysis; format: ADME, organism-based; details: in vivo
[29] = Half-life in Sprague-Dawley rat at 3 mg/kg, iv measured upto 1440 min by LC-MS/MS analysis; format: ADME, organism-based; details: in vivo
[30] = Induction of cell differentiation in C57BL/6 mouse naive regulatory T cells assessed as increase in cell frequency at 1 uM incubated for 72 hrs by flow cytometric analysis (reference value: 24.9%); format: functional
[31] = Induction of cell differentiation in C57BL/6 mouse naive regulatory T cells assessed as increase in cell frequency at 3 uM incubated for 72 hrs by flow cytometric analysis (reference value: 24.9%); format: functional
[32] = molecular target: T1, Aryl hydrocarbon receptor; test: Activation of AhR transcription in C57BL/6 mouse naive T cells assessed as increase in CYP1A1 mRNA expression at 3 uM measured after 72 hrs by qRT-PCR analysis relative to control; format: cell-based; details: t cell
[33] = molecular target: T1, Aryl hydrocarbon receptor; test: Activation of AhR transcription in C57BL/6 mouse naive T cells assessed as increase in UGT1A1 mRNA expression at 1 to 3 uM by qRT-PCR analysis; format: cell-based; details: t cell, dose 1-3 µM
[34] = molecular target: T1, Aryl hydrocarbon receptor; test: Activation of AhR transcription in C57BL/6 mouse naive T cells assessed as increase in AhRR mRNA expression at 1 to 3 uM by qRT-PCR analysis; format: cell-based; details: t cell, dose 1-3 µM
[35] = molecular target: T1, Aryl hydrocarbon receptor; test: Activation of AhR transcription in C57BL/6 mouse naive T cells assessed as increase in CYP1A1 mRNA expression at 1 to 3 uM by qRT-PCR analysis; format: cell-based; details: t cell, dose 1-3 µM
[36] = molecular target: T1, Aryl hydrocarbon receptor; test: Activation of AhR transcription in C57BL/6 mouse naive T cells assessed as increase in CYP1B1 mRNA expression at 1 to 3 uM by qRT-PCR analysis; format: cell-based; details: t cell, dose 1-3 µM

O=Cc1cc(O)ccc1Br
Activity [1]: Not Active

O=Cc1cc(OCc2ccccc2)ccc1Br
Activity [1]: Not Active

COc1cc2c3c(c1)-c1ccc(OCc4ccccc4)cc1CC3N(C(=O)OCc1ccccc1)CC2 (stereo not given)
Activity [1]: Not Active

COc1cc2c(cc1O)CC1NCCc3cc(OC)c(O)c-2c31 (stereo not given)
bioavailability [2]: 2.49%
Activity (Mus musculus [3]): Active
Tmax [4]: 16 min
Cp(f) [5]: 5200 ng/mL
Activity [6]: 32%
Cp(f) [7]: 10020 ng/mL
Cp(f) [8]: 18360 ng/mL
Cmax [9]: 34.1 ng/mL
MRT [10]: 20.6 min
IC50 (EL4): 80 µM
Activity (Mus musculus [11]): 3%
fold induction at 10 µM [12]: 2.1
fraction unbound at 12 h, 10.67 ug/ml [13]: 0.488
Activity (Regulatory T cell [14]): Active
AUC(0-inf) [15]: 112 ng·h/mL
Activity (Mus musculus [16]): 3.6%
Activity (Mus musculus [17]): 6%
Activity (Regulatory T cell [18]): inactive
Activity [19]: 208.3%
CL/F [20]: 0 mg/(ng/ml)/min
Activity (Regulatory T cell [21]): inactive
AUC(0-inf) [22]: 27.8 ng·h/mL
Activity [23]: 37.8%
Cmax [24]: 245 ng/mL
Activity (Mus musculus [25]): 5.6%
CL/F [26]: 0.02 mg/(ng/ml)/min
half-life [27]: 23.3 min
MRT [28]: 42.2 min
half-life [29]: 14.1 min
Activity [30]: 25.4%
Activity [31]: 26.6%

COc1ccc2c(c1)CCN(C(=O)OCc1ccccc1)C2Cc1cc(OCc2ccccc2)ccc1Br (stereo not given)
Activity [1]: Not Active

COc1cccc(CCN)c1
Activity [1]: Not Active

COc1cc2c3c(c1OC)-c1ccc(O)cc1CC3NCC2 (stereo not given)
IC50 (EL4): 64.4 µM
Activity [32]: 150.7%

COc1cc2c(cc1O)-c1c(OC)c(OC)cc3c1C(C2)NCC3 (stereo not given)
Activity [33]: Not Active
Activity [34]: Not Active
IC50 (EL4): 36.9 µM
Activity [35]: Not Active
Activity [36]: Not Active

COc1cc2c3c(c1OC)-c1cc(O)ccc1CC3NCC2 (stereo not given)
Activity [33]: Not Active
Activity [34]: Not Active
IC50 (EL4): 25.9 µM
Activity [35]: Not Active
Activity [36]: Not Active

COc1cc2c(cc1O)CC1c3c(cc(O)c(OC)c3-2)CCN1C (stereo not given)
IC50 (EL4): 70.1 µM
Activity [32]: 222%

Reference: ChEMBL document CHEMBL5338769, “Discovery of Norisoboldine Analogue III11 as a Novel and Potent Aryl Hydrocarbon Receptor Agonist for the Treatment of Ulcerative Colitis” (J Med Chem, 2023)
